Source: patent US7531482B2, “Thieno-pyrimidine compounds having fungicidal activity” (Dow AgroSciences LLC, priority 2005, dated 2009)

Key:
Type in all cases: in vivo
[1] = system: Mycosphaerella graminicola=Septoria tritici; test: Speckled Leaf Blotch of Wheat (SEPTTR) whole-plant disease control test; settings: Mycosphaerella, foliar, 75 ppm applied to foliage of wheat; read-out: SEPTTR disease control
Phytophthora infestans = test: whole plant or invertebrate; settings: Phytophthora infestans, in Solanum lycopersicum, foliar, read-out: PHYTIN disease control, 200 ppm applied to foliage of tomato; inoculated one day after treatment
[2] = system: Puccinia recondita tritici; test: Leaf Rust of Wheat (PUCCRT) whole-plant disease control test; settings: Puccinia recondita, foliar; for pest or weed control at 200 ppm: 200 ppm applied to foliage of wheat, inoculated one day after treatment, read-out: PUCCRT disease control; for pest or weed control at 8.3 ppm: 8.3 ppm (footnote c), wheat foliage
Leptosphaeria nodorum = test: Glume Blotch of Wheat (LEPTNO) whole-plant disease control test; settings: Parastagonospora nodorum, foliar; for pest or weed control at 200 ppm: 200 ppm applied to foliage of wheat, inoculated one day after treatment, read-out: LEPTNO disease control; for pest or weed control at 75 ppm: 75 ppm (footnote b), wheat foliage
Colletotricum lagenarium = test: Cucumber Anthracnose (COLLLA) whole-plant disease control test; settings: Cucumis sativus, foliar; 200 ppm applied to foliage of cucumber; inoculated one day after treatment; read-out: COLLLA disease control
[3] = system: Magnaporthe grisea=Pyricularia oryzae; test: whole plant or invertebrate; settings: Pyricularia oryzae, foliar; for pest or weed control at 200 ppm: read-out: PYRIOR disease control, 200 ppm applied to foliage of rice, inoculated one day after treatment; for pest or weed control at 8.3 ppm: read-out: PYRIOR disease control, 8.3 ppm (footnote c), rice foliage
Erysiphe cichoracaerum = test: Cucumber Powdery Mildew (ERYSCI) whole-plant disease control test; settings: Erysiphe, foliar; 200 ppm applied to foliage of cucumber; inoculated one day after treatment; read-out: ERYSCI disease control

Row | Compound | pest or weed control at 75 ppm [1] | pest or weed control at 200 ppm (Phytophthora infestans) | pest or weed control at 200 ppm [2] | pest or weed control at 200 ppm (Leptosphaeria nodorum) | pest or weed control at 200 ppm (Colletotricum lagenarium) | pest or weed control at 200 ppm [3] | pest or weed control at 200 ppm (Erysiphe cichoracaerum) | pest or weed control at 8.3 ppm [2] | pest or weed control at 75 ppm (Leptosphaeria nodorum) | pest or weed control at 8.3 ppm [3]
1 | FC(F)(F)c1ccnc(Oc2ccc(CCNc3ncnc4scc(Cl)c34)cc2)n1 [Compound 27] | 50 to 79% | 50 to 79% | 80 to 100% | 0 to 49% | 50 to 79% | 80 to 100% | 80 to 100% |  |  | 
2 | COc1ccc([N+](=O)[O-])c(Oc2ccc(CCNc3ncnc4scc(Cl)c34)cc2)n1 [Compound 116] | 0 to 49% |  |  |  |  |  |  | 80 to 100% | 0 to 49% | 0 to 49%
3 | CC(C)(C)c1nnc(Oc2ccc(CCNc3ncnc4scc(Cl)c34)cc2)s1 [Compound 109] | 50 to 79% |  |  |  |  |  |  | 80 to 100% | 50 to 79% | 80 to 100%
4 | O=c1ncn(-c2cccc(Oc3ccc(CCNc4ncnc5scc(Cl)c45)cc3)n2)[nH]1 [Compound 90] | 50 to 79% |  |  |  |  |  |  | 0 to 49% | 0 to 49% | 50 to 79%
5 | Fc1ccc(F)c(Oc2ccc(CCNc3ncnc4scc(Cl)c34)cc2)n1 [Compound 132] |  |  |  |  |  |  |  | 80 to 100% |  | 80 to 100%
6 | Fc1cnc(C(F)(F)F)c(F)c1Oc1cccc(CCNc2ncnc3scc(Cl)c23)c1 [Compound 131] |  |  |  |  |  |  |  | 50 to 79% |  | 
7 | COC(=O)c1ccc(Oc2ccc(CCNc3ncnc4scc(Cl)c34)cc2)nc1 [Compound 20] |  | 0 to 49% | 80 to 100% | 0 to 49% | 0 to 49% | 0 to 49% | 0 to 49% |  |  | 
8 | O=[N+]([O-])c1cccc(Oc2ccc(CCNc3ncnc4scc(Cl)c34)cc2)n1 [Compound 83] | 50 to 79% |  |  |  |  |  |  | 80 to 100% | 50 to 79% | 80 to 100%
9 | COc1cccc(Oc2ccc(CCNc3ncnc4scc(Cl)c34)cc2)n1 [Compound 84, (5-Chlorothieno[2,3-d]pyrimidin-4-yl)-{2-[4-(6-methoxypyridin-2-yloxy)phenyl]ethyl}amine] | 50 to 79% |  |  |  |  |  |  | 80 to 100% | 50 to 79% | 80 to 100%
10 | Nc1c(F)c(F)nc(Oc2ccc(CCNc3ncnc4scc(Cl)c34)cc2)c1F [Compound 128] |  |  |  |  |  |  |  | 80 to 100% |  | 80 to 100%
11 | CSc1cc(C(F)(F)F)cc(Oc2ccc(CCNc3ncnc4scc(Cl)c34)cc2)n1 [Compound 93] | 50 to 79% |  |  |  |  |  |  | 80 to 100% | 0 to 49% | 80 to 100%
12 | C[S+]([O-])c1cc(Cl)nc(Oc2ccc(CCNc3ncnc4scc(Cl)c34)cc2)c1 (centres unmarked) [Compound 92] | 50 to 79% |  |  |  |  |  |  | 80 to 100% | 0 to 49% | 80 to 100%
13 | COc1cnc(C(F)(F)F)c(F)c1Oc1ccc(CCNc2ncnc3scc(Cl)c23)cc1 [Compound 113] | 0 to 49% |  |  |  |  |  |  | 80 to 100% | 0 to 49% | 80 to 100%
14 | FC(F)(F)COc1ccnc(Oc2ccc(CCNc3ncnc4scc(Cl)c34)cc2)c1 [Compound 127] | 50 to 79% |  |  |  |  |  |  | 80 to 100% | 80 to 100% | 
15 | O=Cc1sc(Oc2ccc(CCNc3ncnc4scc(Cl)c34)cc2)nc1Cl [Compound 121] | 0 to 49% |  |  |  |  |  |  | 80 to 100% | 0 to 49% | 80 to 100%
16 | FC(F)(F)c1cnccc1Oc1ccc(CCNc2ncnc3scc(Cl)c23)cc1 [Compound 126] | 80 to 100% |  |  |  |  |  |  | 80 to 100% | 50 to 79% | 
17 | O=C(O)c1ccc(C(F)(F)F)nc1Oc1ccc(CCNc2ncnc3scc(Cl)c23)cc1 [Compound 98] | 50 to 79% |  |  |  |  |  |  | 0 to 49% | 0 to 49% | 0 to 49%
18 | CC(C)(C)C(=O)NNc1cccc(Oc2ccc(CCNc3ncnc4scc(Cl)c34)cc2)n1 [Compound 102, 2,2-Dimethylpropionic acid N′-(6-{4-[2-(5-chlorothieno[2,3-d]pyrimidin-4-ylamino)ethyl]phenoxy}pyridine-2-yl)-hydrazide] | 0 to 49% |  |  |  |  |  |  | 0 to 49% | 0 to 49% | 50 to 79%
19 | Fc1cc(F)c(Oc2ccc(CCNc3ncnc4scc(Cl)c34)cc2)nc1F [Compound 129] | 80 to 100% |  | 80 to 100% |  |  | 80 to 100% |  |  | 50 to 79% | 
20 | NC(=O)c1cccc(Oc2ccc(CCNc3ncnc4scc(Cl)c34)cc2)n1 [Compound 82] | 50 to 79% |  |  |  |  |  |  | 80 to 100% | 50 to 79% | 80 to 100%
21 | CC(C)Cc1nnc(Oc2ccc(CCNc3ncnc4scc(Cl)c34)cc2)s1 [Compound 117] | 0 to 49% |  |  |  |  |  |  | 80 to 100% | 0 to 49% | 80 to 100%
22 | FC(F)(F)COc1cccc(Oc2ccc(CCNc3ncnc4scc(Cl)c34)cc2)n1 [Compound 111] | 50 to 79% |  |  |  |  |  |  | 50 to 79% | 0 to 49% | 80 to 100%
23 | Clc1csc2ncnc(NCCc3ccc(Oc4snnc4-c4ccccc4)cc3)c12 [Compound 115] | 50 to 79% |  |  |  |  |  |  | 80 to 100% | 50 to 79% | 50 to 79%
24 | Clc1csc2ncnc(NCCc3ccc(Oc4nnc(-c5ccncc5)s4)cc3)c12 [Compound 118] | 0 to 49% |  |  |  |  |  |  | 80 to 100% | 0 to 49% | 80 to 100%
25 | N#Cc1ccc(C(F)(F)F)nc1Oc1ccc(CCNc2ncnc3scc(Cl)c23)cc1 [Compound 133] |  |  |  |  |  |  |  | 0 to 49% |  | 
26 | CC(=O)c1cccc(Oc2ccc(CCNc3ncnc4scc(Cl)c34)cc2)n1 [Compound 100] |  |  |  |  |  |  |  | 80 to 100% | 0 to 49% | 80 to 100%
27 | CC(C)(C)c1noc(-c2cccc(Oc3ccc(CCNc4ncnc5scc(Cl)c45)cc3)n2)n1 [Compound 96] | 50 to 79% |  |  |  |  |  |  | 80 to 100% | 50 to 79% | 50 to 79%
28 | Clc1csc2ncnc(NCCc3ccc(Oc4nnc(COc5ccccc5)s4)cc3)c12 [Compound 119] | 0 to 49% |  |  |  |  |  |  | 80 to 100% | 0 to 49% | 80 to 100%
29 | N#Cc1c(Cl)cncc1Oc1cccc(CCNc2ncnc3scc(Cl)c23)c1 [Compound 130] | 0 to 49% | 80 to 100% | 80 to 100% |  | 0 to 49% | 80 to 100% | 0 to 49% |  |  | 
30 | CS(=O)(=O)c1ccc(Oc2ccc(CCNc3ncnc4scc(Cl)c34)cc2)nc1 [Compound 2] |  | 0 to 49% | 80 to 100% | 0 to 49% | 0 to 49% | 50 to 79% | 0 to 49% |  |  | 
